US20110301155A1, “INDAZOLE COMPOUNDS FOR ACTIVATING GLUCOKINASE” (priority 2007, published 2011)
Where a name gives a salt, the structure may show the parent alone.

Biological target: T1, GK (recombinant glucokinase, residues 12-465 of the human enzyme) (Homo sapiens, UniProt P35557)
T1 construct: FLAG (C-terminal tag of vector pFLAG-CTC; only the vector is printed) (C); made in house; host or cells: Escherichia coli DH10b-T1r (pFLAG-CTC plasmid)
T1 sequence (P35557 12-465): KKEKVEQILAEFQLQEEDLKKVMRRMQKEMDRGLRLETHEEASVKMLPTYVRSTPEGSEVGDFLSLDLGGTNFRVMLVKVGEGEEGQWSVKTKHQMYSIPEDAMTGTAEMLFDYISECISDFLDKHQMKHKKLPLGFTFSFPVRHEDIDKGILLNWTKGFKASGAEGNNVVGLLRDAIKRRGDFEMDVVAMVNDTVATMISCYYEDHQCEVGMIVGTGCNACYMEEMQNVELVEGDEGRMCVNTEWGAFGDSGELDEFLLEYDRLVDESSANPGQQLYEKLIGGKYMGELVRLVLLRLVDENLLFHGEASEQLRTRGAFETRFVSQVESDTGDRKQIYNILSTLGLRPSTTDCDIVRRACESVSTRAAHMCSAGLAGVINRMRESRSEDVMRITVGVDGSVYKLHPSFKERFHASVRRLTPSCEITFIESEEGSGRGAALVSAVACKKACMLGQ
Assay: Determination of GK activity value (luminescence assay)
Assay type: biochemical
Details: calculated maximal gain in GK enzyme activity at saturating compound concentration; 5 mM glucose, 5 μM ATP
Excerpt: DNA encoding residues 12-465 of the full-length sequence of the human enzyme may be amplified by PCR and cloned into the HindIII and EcoRI sites of pFLAG-CTC (Sigma). SEQ.I.D. No. 1 corresponds to residues 12-465 of glucokinase.
The expression of recombinant glucokinase protein may be carried out by transformation and growth of DH10b-T1r E. coli cells incorporating the (pFLAG-CTC) plasmid in LB media. Protein expression can be induced in this system by the addition of IPTG to the culture medium.
Recombinant protein may be isolated from cellular extracts by passage over Sepharose Q Fast Flow resin (Pharmacia). This partially purified GK extract may then be further purified by a second passage over Poros HQ10 (Applied Biosystems). The purity of GK may be determined on denaturing SDS-PAGE gel. Purified GK may then be concentrated to a final concentration of 20.0 mg/ml. After flash freezing in liquid nitrogen, the proteins can be stored at −78° C. in a buffer containing 25 mM TRIS-HCl pH 7.6, 50 mM NaCl, and 0.5 mM TCEP.
The activation properties of compounds for GK may be determined using a black 384-well-plate format under the following reaction conditions: 25 mM Hepes pH 7.2, 25 mM NaCl, 10 mM MgCl2, 0.01% Brij35, 1 mM DTT, 5 μM ATP, 5 mM Glucose 2% DMSO. The amount of ATP consumed may be determined quantitatively by addition of equal volume of luciferase reagent (luciferase+beetle luciferin—KinaseGlo Luminescent Kinase Assay kit from Promega). The luminescence intensity may be measured by using the Analyst HT from LJL Biosystems.
The assay reaction may be initiated as follows: 4 μl of substrate mixture (12.5 μM ATP and 12.5 mM Glucose) was added to each well of the plate, followed by the addition of 2 μl of activator (2 fold serial dilutions for 11 data points for each activator) containing 10% DMSO. 4 μL of 1.25 nM GK solution obtained in Reference Example 3A may be added to initiate the reaction. The reaction mixture may then be incubated at room temperature for 60 min, and quenched and developed by addition of 10 μL of luciferase reagent. Luminescence intensities of the resulting reaction mixtures may be measured after a 10 min incubation at room temperature. The luminescence intensity may be measured by using the Analyst HT from LJL Biosystems.
% ACTmax values may be calculated by non-linear curve fitting of the compound concentrations and luminescence intensities to a standard inhibition/activation equation. % ACTmax represents the calculated maximal gain in GK enzyme activity at a saturating concentration of the compound. % ACTmax values for select compounds of the present invention are given in Table 2.

% ACTmax	Compound
146.5%	COCC(O)Cn1ccc(Nc2n[nH]c3c(Oc4ccc(S(C)(=O)=O)cc4)cc(-c4ncccc4Cl)cc23)n1 (stereo not shown) [Example 140, 1-(3-(5-(3-chloropyridin-2-yl)-7-(4-(methylsulfonyl)phenoxy)-1H-indazol-3-ylamino)-1H-pyrazol-1-yl)-3-methoxypropan-2-ol]
110.9%	CC(C)S(=O)(=O)c1cc(Oc2ccc(S(C)(=O)=O)cc2)c2[nH]nc(Nc3ccn(C)n3)c2c1 [Example 136, 5-(isopropylsulfonyl)-N-(1-methyl-1H-pyrazol-3-yl)-7-(4-(methylsulfonyl)phenoxy)-1H-indazol-3-amine trifluoroacetic acid salt]
147.8%	CS(=O)(=O)c1ccc(Oc2cc(-c3ncccc3Cl)cc3c(Nc4ccn(CC(O)CO)n4)n[nH]c23)cc1 (stereo not shown) [Example 131, 3-(3-(5-(3-chloropyridin-2-yl)-7-(4-(methylsulfonyl)phenoxy)-1H-indazol-3-ylamino)-1H-pyrazol-1-yl)propane-1,2-diol]
24.1%	Cn1ccc(Nc2nn(C)c3c(Oc4ccc(S(C)(=O)=O)cc4)cc(-c4ncccc4Cl)cc23)n1 [Example 134, 5-(3-chloropyridin-2-yl)-1-methyl-N-(1-methyl-1H-pyrazol-3-yl)-7-(4-(methylsulfonyl)phenoxy)-1H-indazol-3-amine]
